Source: PubChem BioAssay (NCI)
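Each compound was tested at five concentrations against cells in 96-well plates for 48 hours. GI50 = concentration required for 50% inhibition of growth. TGI is the concentration that stops growth completely.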

Experiments:
Test in all cases: DTP human tumour cell line panel, 48 h
A549 NSCLC = test system: A549 NSCLC
HCT-15 colon = test system: HCT-15 colon
HOP-62 NSCLC = test system: HOP-62 NSCLC
IGROV1 ovarian = test system: IGROV1 ovarian
LOX IMVI melanoma = test system: LOX IMVI melanoma
M14 melanoma = test system: M14 melanoma
NCI-H460 lung = test system: NCI-H460 lung
OVCAR-3 ovarian = test system: OVCAR-3 ovarian
SK-MEL-28 melanoma = test system: SK-MEL-28 melanoma
UO-31 renal = test system: UO-31 renal

SMILES	GI50 (A549 NSCLC) [µM]	TGI (A549 NSCLC) [µM]	GI50 (HCT-15 colon) [µM]	TGI (HCT-15 colon) [µM]	GI50 (HOP-62 NSCLC) [µM]	TGI (HOP-62 NSCLC) [µM]	GI50 (IGROV1 ovarian) [µM]	TGI (IGROV1 ovarian) [µM]	GI50 (LOX IMVI melanoma) [µM]	TGI (LOX IMVI melanoma) [µM]	GI50 (M14 melanoma) [µM]	TGI (M14 melanoma) [µM]	GI50 (NCI-H460 lung) [µM]	TGI (NCI-H460 lung) [µM]	GI50 (OVCAR-3 ovarian) [µM]	TGI (OVCAR-3 ovarian) [µM]	GI50 (SK-MEL-28 melanoma) [µM]	TGI (SK-MEL-28 melanoma) [µM]	GI50 (UO-31 renal) [µM]	TGI (UO-31 renal) [µM]
COc1ccc(C2=CSc3cc(Cl)c(C)cc3S(=O)(=O)N2C(C)=O)cc1	27.4	65	24.6	88.5	47.2	> 100	36.2	> 100	21	> 100	49.1	> 100	29	99.5	15.8	41.4	56	> 100	51.2	> 100
COc1ccccc1NC(=O)CC(=O)n1nc(C)c(N=Nc2ccccc2C(=O)O)c1C		> 100		> 100		> 100		> 100		> 100		> 100		> 100		> 100		> 100		> 100
Cc1nc2c(nc1C)C(=O)c1ccccc1C2=O		3.41		8.3		10.3		27.2		7.11		2.26		3.2		13.3		4.76		36.2
CC(=O)N1[C@H](C(=O)O)CS[C@H]1c1ccncc1		> 100		> 100		> 100		> 100		> 100		> 100		> 100		> 100		> 100		> 100
O=c1cc(-c2cccc(O)c2)[nH]c2cc3c(cc12)OCO3		> 100		> 100		14.7		> 100		> 100		> 52.5		> 100		0.386		83.5		> 100
Cc1cnc(NC(=O)C(Cc2ccccc2)NC(=O)c2ccccc2)s1 (centres undefined)	3.32	15.8	2.63	8.9	10	28			6.25	19.3	1.75	3.95	3.54	13.8	11.3	25.8	19.8	49.9	3.98	18.9
O=C(O)C(Cc1ccccc1)N1C(=O)N/C(=C\c2ccc(F)cc2)C1=O (centres undefined)		> 100		> 100		> 100		> 100		> 100		> 100		> 100						> 100
COC(=O)[C@@]12C3=NO[C@]1(C(=O)OC)C(O[Si](C)(C)C(C)(C)C)[C@H]1OC(C)(C)O[C@H]1[C@@H]2C(OCc1ccccc1)CC3 (some centres undefined)		> 100		> 100				> 100		> 100		> 100		23.7		> 100		> 100		> 100
C=CCc1cc(OC)c2c(c1)C(O)CC(c1ccc(OC)c(OC)c1)O2 (centres undefined)		> 100		> 100		> 100		> 100				> 100		> 100		> 100		> 100		> 100
O=C(CSC(=S)N1CCCCC1)Nc1nc2c(s1)CCCC2		> 100		> 100		> 100		> 100		40.6		> 100		> 100				> 100		> 100
Nc1ccc(C(=O)N/C(=C\c2ccc3c(c2)OCO3)c2nc3[nH]c(=S)[nH]c(=O)c3[nH]2)cc1		> 100		> 100				> 100				> 100				> 100		> 100		> 100
O=C1NC2(CCCCC2)C2CCCCC(O)C12 (centres undefined)		> 100		> 100		> 100		> 100						> 100		> 100		> 100		> 100
COc1ccc2c(c1)C1(C=N2)CCN(C(C)=O)CC1		> 100		> 100		> 100		> 100		> 100		> 100		> 100		> 100		> 100		
O=[S@@]1Nc2ccc(Br)cc2S1		> 100						> 100		> 100		> 100				> 100		> 100		7.43
COc1ccc(-c2cc(=O)c3ccc(O)cc3o2)c(OC)c1OC		> 100				> 100		> 100		> 100		> 100				> 100		> 100		
CC1CN1P1(N2CC2C)=NP(N2CC2C)(N2CC2C)=NP(N2CC2C)(N2CC2C)=N1 (centres undefined)		> 50		> 50				> 50				> 50		> 50		> 50		> 50		> 50
CCNC1C2(CCCCC2)NC(=O)C12CCCCC2 (centres undefined)		> 100		> 100		> 100		> 100				> 100		> 100		> 100		> 100		> 100
CC(C)=CCCc1c(C)ccc2c1C(=O)C(=O)C(C(C)C)=C2		> 22		7.14				> 22				7.95		> 22		7.36		6.92		> 22
O=C(CCl)N1c2ccccc2Oc2ccc3ccccc3c21	1.9	3.81			1.81	3.25	0.83	2.53	0.347	1.41	1.14	2.56	2	4.11	1.23	2.64	1.83	3.34	1.17	2.53
COc1cccc(NC(=O)CC(=O)n2nc(C)c(N=Nc3ccccc3)c2C)c1		> 100				> 100		> 100		> 100		> 100				> 100		> 100		> 100
CC1=C(C(=O)Nc2ccccc2C)C(c2ccco2)C(C(=O)Nc2ccccc2C)=C(C)N1C		> 100				> 100		> 100		> 100		> 100		> 100		> 100		> 100		> 100
CCOC(=O)C1=C(C)CC2C(=O)OC(=O)C2C1(C)C (centres undefined)		> 100		> 100				> 100				> 100		> 100		> 100		> 100		> 100
